Source: patent US12502393B2, “Dual mode of action soluble guanylate cyclase activators and phosphodiesterase inhibitors and uses thereof” (TOPADUR PHARMA AG, priority 2018, dated 2025)
Like-named read-outs stand apart in the source and are kept apart here.

Key:
[1] = tested on: Human Trabecular Meshwork Cells; experiment: Cellular cGMP assay in human trabecular meshwork cells; format: cell-based; conditions: HTMC, 10 μM Riociguat; for Ratio Maximum cGMP increase vs Baseline: 5 mM GSH, incubation 2 h
[2] = tested on: Rat aortic smooth muscle cells; experiment: Cellular cGMP assay in rat aortic smooth muscle cells; format: cell-based; conditions: 10 μM Riociguat
Method: Examples (Test compounds) were characterized for their potency and efficacy to elevate cGMP in cellular systems such as human trabecular meshwork cells (Table 3), human platelets (Table 5) and rat aortic smooth muscle cells (Table 4).
Human trabecular meshwork cells (ABC Biopply AG, Solothurn, Switzerland) or rat aortic smooth muscle cells (Sigma Aldrich AG, Buchs, Switzerland) were plated in a 96 well plate precoated with collagen (Collagen Type I solution from rat tail, Sigma; diluted to 0.1 mg/ml) at 20.000 cells per well and grown in corresponding Trabecular Meshwork (ABC Supply AG) or Smooth Muscle (Sigma AG) Growth medium as provided by the manufacturers. After 18 h medium was exchanged and new medium added supplemented with 5 mM GSH. The next day culture medium was exchanged to DMEM with low glucose supplemented with 5 mM GSH. Cells were pre-incubated with 10 μM Riociguat (soluble guanylate cyclase stimulator; Lucerna-Chem AG, Luzern, Switzerland) for 15 min before test or reference compounds or vehicle was added to a final incubation volume of 100 μl per well. At the end of the incubation time (see below) the reaction was terminated by adding HCl (0.16M), IBMX (Isobutylmethylxanthin) (2 mM) in DMSO (2%) to the culture medium, final concentrations per well are given in brackets. Following a 20 sec on a plate shaker (200 rpm) the plate was immediately frozen at −80° C.
(§1) cGMP was determined by a commercially available ELISA kit (Direct cGMP ELISA kit, Enzo Life Sciences AG, Lauren, Switzerland) with a lower detection limit of 0.08 pmol/ml using the acetylation protocol following manufacturer's instructions. Results are given as the means from at least two independent experiments each in triplicate.
(§2) To study concentration-dependent effects on total cGMP test and reference compounds were investigated from 0.1 nM to 1 μM in half-logarithmic steps with an incubation time of 2 h. To examine the time course the incubation times were (min) 10, 30, 60, 90, 120 at 1 μM of test or reference compound.
(§3) Compounds were diluted from stock solutions in DMSO. The final concentration of DMSO in all wells including the vehicle controls was 0.2% for human trabecular meshwork and rat aortic smooth muscle cells and 0.3% for platelets.
(§4) From time course experiments, the time to half of the maximum cGMP increase with 1 μM of test compound has been extrapolated (t0.5max).

[3] = molecular target: T1, recombinant human (rh) PDE5A (Homo sapiens, UniProt O76074); experiment: Phosphodiesterase-5 activity assay (radiometric SPA); format: biochemical; conditions: rhPDE5A1, 0.5 μM cGMP, 20 min at 37° C.
T1 construct: GST; purchased SIGMA E9034

[4] = tested on: Human Platelets; experiment: Total cGMP in human platelets; format: cell-based; conditions: for Ratio Maximum cGMP increase vs Baseline: 1 μM riociguat and 100 nM BAY 190954, incubation 2 h; for Concentration (nM) for 3-fold cGMP or 2-fold* increase vs Baseline: 1 μM riociguat, 100 nM BAY 190954
Method: Effects of test and reference compounds on total cGMP in human platelets were investigated as described by Dunkern and Hatzelmann (Cell Signal. 17: 331-9, 2005) with modifications. Briefly, buffy coats (acquired form SRK Blutspende Zurich) were 4-fold diluted in 150 mM sodium chloride solution containing 0.9% sodium citrate and centrifuged at 200 g for 10 min. The resulting platelet-rich plasma was supplemented with a 1/10 volume of ACD solution (85 mM sodium citrate, 111 mM D-glucose, 71 mM citric acid, pH 4.4) and apyrase (Sigma AG) to a final concentration of 2 U/ml. After another centrifugation (1400 g, 10 min) the cellular pellet was resuspended in Ca2+/Mg2+-free Hepes-Tyrode buffer (134 mM NaCl, 12 mM NaHCO3, 2.9 mM KCl, 0.36 mM NaH2PO4, 5 mM HEPES, 5 mM glucose, 0.5% (w/v) bovine serum albumin, pH 7.4) and platelets were counted.
Platelets were used at 9×10^7 cells in 100 μl per well and after adding test and reference compounds the incubation volume was 200 μl per well in Hepes-Tyrode. Experiments in platelets were done in presence of 1 μM riociguat and 100 nM BAY 190954 (PDE2 inhibitor) (Lucerna Chem AG) and test/reference compounds were added after a preincubation time of 15 min. At the end of the incubation time (see below) the reaction was terminated by adding 20 μl of 2N HCl per well. Following a 20 sec on a plate shaker (300 rpm) the plate was left for 15 min and then centrifuged at 1000×g for 5 min. Supernatants were stored at −80° C.
as §1, §2, §3, §4

[5] = Human plasma protein binding; format: in vitro ADME; conditions: for fraction unbound: human
Method: An aliquot of 200 μL of human plasma containing test compound was spiked into donor well (red chamber) of the insert. 350 μL of PBS was spiked into receiver well (white chamber) of the insert.
The samples were matrix equilibrated with opposite matrix (25 μL of plasma/buffer sample was matched with 25 μL of blank buffer/plasma). Matrix matched samples were precipitated with 200 μL of acetonitrile containing internal standard. Samples were vortexed at 1000 rpm for 5 min and centrifuged at 4000 rpm for 10 min. Supernatant was separated, diluted 2 fold with water and analysed in LC-MS/MS. (Table 2).

[6] = 3-fold increase (values without asterisk)
[7] = read-out: % Unbound in human plasma
[8] = 2-fold increase (values marked *)
[9] = read-out: % Bound in human plasma (converted)

Structure (SMILES) | Concentration (nM) for 3-fold or 2-fold* cGMP increase vs Baseline [1, 6] [nM] | Ratio Maximum cGMP increase vs Baseline [1] | Concentration (nM) for 3-fold cGMP increase vs Baseline [2] [nM] | Ratio Maximum cGMP increase vs Baseline ([2]; 5 mM GSH, incubation 2 h) | IC50 [3] [pM] | Ratio Maximum cGMP increase vs Baseline [4] | Concentration (nM) for 3-fold cGMP or 2-fold* increase vs Baseline [4, 6] [nM] | % Bound in human plasma [5] [%] | fraction unbound [5, 7] | Concentration (nM) for 3-fold or 2-fold* cGMP increase vs Baseline [1, 8] | Concentration (nM) for 3-fold cGMP or 2-fold* increase vs Baseline [4, 8] | fraction unbound [5, 9]
CCCc1nn(C)c2c(=O)[nH]c(-c3cc(S(=O)(=O)N4CCC([C@H](CO[N+](=O)[O-])O[N+](=O)[O-])CC4)ccc3OCC)nc12 [Compound 1a, (R)-1-(1-((4-ethoxy-3-(1-methyl-7-oxo-3-propyl-6,7-dihydro-1H-pyrazolo[4,3-d]pyrimidin-5-yl)phenyl)sulfonyl)piperidin-4-yl)ethane-1,2-diyl dinitrate] | 26.7 | 55.7 | 222 | 4.44 | 5000 | 67.4 | 57 | – | – | – | – | –
CCCc1nc(C)c2c(=O)[nH]c(-c3cc(S(=O)(=O)N4CCC(C(O)(CCO)CCO[N+](=O)[O-])CC4)ccc3OCC)nn12 (stereo not shown) [Compound 2g, 3-(1-((4-ethoxy-3-(5-methyl-4-oxo-7-propyl-3,4-dihydroimidazo[5,1-f][1,2,4]triazin-2-yl)phenyl)sulfonyl)piperidin-4-yl)-3,5-dihydroxypentyl nitrate] | – | 109.1 | – | – | 370 | 183.5 | – | 98.29 | 0.0171 | 22.2* nM | – | –
CCCc1nc(C)c2c(=O)[nH]c(-c3cc(S(=O)(=O)N4CCC(C(O)(CCO[N+](=O)[O-])CCO[N+](=O)[O-])CC4)ccc3OCC)nn12 [Compound 2h, 3-(1-((4-ethoxy-3-(5-methyl-4-oxo-7-propyl-3,4-dihydroimidazo[5,1-f][1,2,4]triazin-2-yl)phenyl)sulfonyl)piperidin-4-yl)-3-hydroxypentane-1,5-diyl dinitrate] | – | – | – | – | 1000 | 171.3 | – | 99.77 | 0.0023 | – | – | –
CCCc1nc(C)c2c(=O)[nH]c(-c3cc(S(=O)(=O)N4CCC(C(O)C(CO[N+](=O)[O-])CO[N+](=O)[O-])CC4)ccc3OCC)nn12 (stereo not shown) [Compound 2i, 2-((1-((4-ethoxy-3-(5-methyl-4-oxo-7-propyl-3,4-dihydroimidazo[5,1-f][1,2,4]triazin-2-yl)phenyl)sulfonyl)piperidin-4-yl)(hydroxy)methyl)propane-1,3-diyl dinitrate] | – | – | – | – | 1500 | 932.9 | – | 99.99 | 0.0001 | – | – | –
CCCc1nc(C)c2c(=O)[nH]c(-c3cc(S(=O)(=O)N4CCC(CC(CO[N+](=O)[O-])CO[N+](=O)[O-])CC4)ccc3OCC)nn12 [Compound 2m, 2-((1-((4-ethoxy-3-(5-methyl-4-oxo-7-propyl-3,4-dihydroimidazo[5,1-f][1,2,4]triazin-2-yl)phenyl)sulfonyl)piperidin-4-yl)methyl)propane-1,3-diyl dinitrate] | – | – | – | – | 440 | 262.3 | – | 99.92 | 0.0008 | – | – | –
CCCc1nc(C)c2c(=O)[nH]c(-c3cc(S(=O)(=O)N4CCC(CC(CO)CO[N+](=O)[O-])CC4)ccc3OCC)nn12 (stereo not shown) [Compound 2n, 3-(1-((4-ethoxy-3-(5-methyl-4-oxo-7-propyl-3,4-dihydroimidazo[5,1-f][1,2,4]triazin-2-yl)phenyl)sulfonyl)piperidin-4-yl)-2-(hydroxymethyl)propyl nitrate] | – | – | – | – | 470 | 161.0 | – | 99.48 | 0.0052 | – | – | –
CCCc1nc(C)c2c(=O)[nH]c(-c3cc(S(=O)(=O)N4CCC(CC(C)(CO[N+](=O)[O-])CO[N+](=O)[O-])CC4)ccc3OCC)nn12 [Compound 2o, 2-((1-((4-ethoxy-3-(5-methyl-4-oxo-7-propyl-3,4-dihydroimidazo[5,1-f][1,2,4]triazin-2-yl)phenyl)sulfonyl)piperidin-4-yl)methyl)-2-methylpropane-1,3-diyl dinitrate] | – | 86.9 | – | – | 520 | 202.8 | – | 99.95 | 0.0005 | 1.9* nM | 120* nM | –
CCCc1nc(C)c2c(=O)[nH]c(-c3cc(S(=O)(=O)N4CCC(CC(C)(CO)CO[N+](=O)[O-])CC4)ccc3OCC)nn12 (stereo not shown) [Compound 2p, 3-(1-((4-ethoxy-3-(5-methyl-4-oxo-7-propyl-3,4-dihydroimidazo[5,1-f][1,2,4]triazin-2-yl)phenyl)sulfonyl)piperidin-4-yl)-2-(hydroxymethyl)-2-methylpropyl nitrate] | – | 46.1 | – | – | 110 | 204.1 | – | 99.66 | 0.0034 | 1.4* nM | 102* nM | –
CCCc1nn(C)c2c(=O)[nH]c(-c3cc(S(=O)(=O)N4CCC(C(O)C(CO)CO)CC4)ccc3OCC)nc12 (stereo not shown) [Compound 22, 5-(5-((4-(1,3-dihydroxy-2-(hydroxymethyl)propyl)piperidin-1-yl)sulfonyl)-2-ethoxyphenyl)-1-methyl-3-propyl-1,6-dihydro-7H-pyrazolo[4,3-d]pyrimidin-7-one] | – | – | – | – | 8500 | – | – | – | 0.036 | – | – | 0.036
CCCc1nc(C)c2c(=O)[nH]c(-c3cc(S(=O)(=O)N4CCC(C(O)(CCO)CCO)CC4)ccc3OCC)nn12 [Compound 28, 2-(2-ethoxy-5-((4-(1,3,5-trihydroxypentan-3-yl)piperidin-1-yl)sulfonyl)phenyl)-5-methyl-7-propylimidazo[5,1-f][1,2,4]triazin-4(3H)-one] | – | – | – | – | 190 | – | – | – | 0.069 | – | – | 0.069
CCCc1nc(C)c2c(=O)[nH]c(-c3cc(S(=O)(=O)N4CCC(CC(CO)CO)CC4)ccc3OCC)nn12 [Compound 43, 2-(2-ethoxy-5-(4-(3-hydroxy-2-(hydroxymethyl)propyl)piperidin-1-ylsulfonyl)phenyl)-5-methyl-7-propylimidazo[1,5-f][1,2,4]triazin-4(3H)-one] | – | – | – | – | 130 | 28.5 | – | – | 0.022 | – | – | 0.022
CCCc1nc(C)c2c(=O)[nH]c(-c3cc(S(=O)(=O)N4CCC(CC(C)(CO)CO)CC4)ccc3OCC)nn12 [Compound 47, 2-(2-ethoxy-5-((4-(3-hydroxy-2-(hydroxymethyl)-2-methylpropyl)piperidin-1-yl)sulfonyl)phenyl)-5-methyl-7-propylimidazo[5,1-f][1,2,4]triazin-4(3H)-one] | – | – | – | – | 22 | 39.0 | – | – | – | – | – | –
